Reference: ChEMBL document CHEMBL5715954, “Silencing c-Myc translation as a therapeutic strategy through targeting PI3Kδ and CK1ε in hematological malignancies” (Blood, 2017)

How the values were obtained:
Design in all cases: scale not given: the % may be the effect or the level left
[1] = biological target: T1, Serine/threonine-protein kinase ULK1 (Homo sapiens) (UniProt O75385); assay: Inhibition of human ULK1 assessed as enzyme activity at 1 uM using myelin basic protein as substrate preincubated for 20 mins followed by [gamma-33P]-ATP addition and measured after 120 mins by radiometric Hot-SpotSM Kinase assay relative to control
T1 sequence (whole entry): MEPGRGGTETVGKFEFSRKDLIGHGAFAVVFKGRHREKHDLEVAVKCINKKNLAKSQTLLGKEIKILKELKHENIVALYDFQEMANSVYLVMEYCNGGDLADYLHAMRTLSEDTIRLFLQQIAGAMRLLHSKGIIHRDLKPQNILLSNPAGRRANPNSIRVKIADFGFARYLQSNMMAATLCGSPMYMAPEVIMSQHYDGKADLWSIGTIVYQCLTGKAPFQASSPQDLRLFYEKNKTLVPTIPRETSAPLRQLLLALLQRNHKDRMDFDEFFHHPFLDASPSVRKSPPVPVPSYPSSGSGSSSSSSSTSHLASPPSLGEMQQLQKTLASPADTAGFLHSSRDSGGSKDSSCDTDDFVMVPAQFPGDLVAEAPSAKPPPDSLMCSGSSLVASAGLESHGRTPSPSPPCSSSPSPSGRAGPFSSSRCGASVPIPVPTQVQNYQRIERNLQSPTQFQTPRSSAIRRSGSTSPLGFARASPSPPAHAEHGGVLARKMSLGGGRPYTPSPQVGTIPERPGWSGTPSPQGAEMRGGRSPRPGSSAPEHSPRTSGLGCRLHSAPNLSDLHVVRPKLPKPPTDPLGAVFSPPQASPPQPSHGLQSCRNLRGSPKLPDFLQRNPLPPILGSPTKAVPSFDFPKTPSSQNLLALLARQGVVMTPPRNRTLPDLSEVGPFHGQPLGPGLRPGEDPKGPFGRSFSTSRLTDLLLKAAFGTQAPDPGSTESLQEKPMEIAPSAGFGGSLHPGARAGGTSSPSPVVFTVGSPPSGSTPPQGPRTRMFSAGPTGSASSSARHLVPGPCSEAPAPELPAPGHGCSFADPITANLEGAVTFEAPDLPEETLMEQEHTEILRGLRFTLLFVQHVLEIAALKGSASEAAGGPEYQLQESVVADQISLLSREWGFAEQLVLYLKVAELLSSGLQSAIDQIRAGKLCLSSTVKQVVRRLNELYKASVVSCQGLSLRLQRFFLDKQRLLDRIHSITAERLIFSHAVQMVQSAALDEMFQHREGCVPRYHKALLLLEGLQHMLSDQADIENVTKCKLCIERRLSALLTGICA

[2] = biological target: Serine/threonine-protein kinase Chk2 (Homo sapiens) (UniProt O96017); assay: Inhibition of human CHK2 assessed as enzyme activity at 1 uM using KKKVSRSGLYRSPSMPENLNRPR as substrate preincubated for 20 mins followed by [gamma-33P]-ATP addition and measured after 120 mins by radiometric Hot-SpotSM Kinase assay relative to control
Serine/threonine-protein kinase Chk2 (Homo sapiens), sequence (O96017 whole entry): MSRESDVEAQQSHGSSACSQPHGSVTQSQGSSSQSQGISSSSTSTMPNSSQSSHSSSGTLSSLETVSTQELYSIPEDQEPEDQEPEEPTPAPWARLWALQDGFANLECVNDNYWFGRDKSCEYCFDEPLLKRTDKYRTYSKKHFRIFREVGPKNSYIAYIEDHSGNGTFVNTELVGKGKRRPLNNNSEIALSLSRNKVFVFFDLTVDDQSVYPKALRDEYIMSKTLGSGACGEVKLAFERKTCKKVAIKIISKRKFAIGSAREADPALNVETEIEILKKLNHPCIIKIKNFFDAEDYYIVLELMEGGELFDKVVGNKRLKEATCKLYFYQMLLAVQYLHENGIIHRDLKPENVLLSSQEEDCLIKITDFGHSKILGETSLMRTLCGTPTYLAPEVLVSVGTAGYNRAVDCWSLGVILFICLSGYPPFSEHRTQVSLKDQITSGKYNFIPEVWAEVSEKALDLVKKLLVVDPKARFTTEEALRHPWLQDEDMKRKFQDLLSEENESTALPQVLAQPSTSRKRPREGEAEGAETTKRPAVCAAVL

[3] = biological target: T2, Serine/threonine-protein kinase BRSK1 (Homo sapiens) (UniProt Q8TDC3); assay: Inhibition of human BRSK1 assessed as enzyme activity at 1 uM using KKKVSRSGLYRSPSMPENLNRPR as substrate preincubated for 20 mins followed by [gamma-33P]-ATP addition and measured after 120 mins by radiometric Hot-SpotSM Kinase assay relative to control
T2 sequence (whole entry): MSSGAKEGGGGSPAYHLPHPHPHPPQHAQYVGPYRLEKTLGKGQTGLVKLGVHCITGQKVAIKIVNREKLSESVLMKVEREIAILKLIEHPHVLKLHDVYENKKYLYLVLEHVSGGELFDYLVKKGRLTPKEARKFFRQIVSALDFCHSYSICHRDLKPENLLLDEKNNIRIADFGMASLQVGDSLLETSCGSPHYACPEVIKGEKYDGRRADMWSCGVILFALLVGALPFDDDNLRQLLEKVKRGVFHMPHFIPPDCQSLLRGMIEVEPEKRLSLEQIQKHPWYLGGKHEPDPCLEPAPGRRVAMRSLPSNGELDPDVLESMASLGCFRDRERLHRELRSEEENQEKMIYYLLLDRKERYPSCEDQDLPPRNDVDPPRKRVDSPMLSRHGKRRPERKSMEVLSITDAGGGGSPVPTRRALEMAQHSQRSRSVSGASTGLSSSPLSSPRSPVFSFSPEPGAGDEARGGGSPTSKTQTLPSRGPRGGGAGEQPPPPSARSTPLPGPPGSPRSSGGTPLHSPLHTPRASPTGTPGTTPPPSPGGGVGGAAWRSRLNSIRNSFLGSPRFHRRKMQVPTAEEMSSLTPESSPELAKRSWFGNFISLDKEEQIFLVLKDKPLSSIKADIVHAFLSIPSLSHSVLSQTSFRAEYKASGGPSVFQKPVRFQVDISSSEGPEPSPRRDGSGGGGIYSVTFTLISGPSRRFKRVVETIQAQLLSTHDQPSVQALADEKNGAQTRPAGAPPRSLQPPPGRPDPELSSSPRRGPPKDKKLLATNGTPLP

[4] = biological target: CDK1/Cyclin E (Homo sapiens) (UniProt P06493+P24864); assay: Inhibition of human CDK1/cyclin E assessed as enzyme activity at 1 uM using RB Protein as substrate preincubated for 20 mins followed by [gamma-33P]-ATP addition and measured after 120 mins by radiometric Hot-SpotSM Kinase assay relative to control; type: protein-complex assay
CDK1/Cyclin E (Homo sapiens), sequence (P06493 whole entry, looked up): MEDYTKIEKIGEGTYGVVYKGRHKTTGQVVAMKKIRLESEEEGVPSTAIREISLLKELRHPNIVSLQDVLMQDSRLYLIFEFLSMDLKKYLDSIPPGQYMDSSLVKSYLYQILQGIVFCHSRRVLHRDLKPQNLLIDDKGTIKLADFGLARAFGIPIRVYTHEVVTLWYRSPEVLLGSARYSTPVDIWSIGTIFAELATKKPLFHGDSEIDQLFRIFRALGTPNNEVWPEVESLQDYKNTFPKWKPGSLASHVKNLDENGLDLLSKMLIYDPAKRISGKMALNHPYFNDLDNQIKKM
CDK1/Cyclin E (Homo sapiens), sequence (P24864 whole entry, looked up): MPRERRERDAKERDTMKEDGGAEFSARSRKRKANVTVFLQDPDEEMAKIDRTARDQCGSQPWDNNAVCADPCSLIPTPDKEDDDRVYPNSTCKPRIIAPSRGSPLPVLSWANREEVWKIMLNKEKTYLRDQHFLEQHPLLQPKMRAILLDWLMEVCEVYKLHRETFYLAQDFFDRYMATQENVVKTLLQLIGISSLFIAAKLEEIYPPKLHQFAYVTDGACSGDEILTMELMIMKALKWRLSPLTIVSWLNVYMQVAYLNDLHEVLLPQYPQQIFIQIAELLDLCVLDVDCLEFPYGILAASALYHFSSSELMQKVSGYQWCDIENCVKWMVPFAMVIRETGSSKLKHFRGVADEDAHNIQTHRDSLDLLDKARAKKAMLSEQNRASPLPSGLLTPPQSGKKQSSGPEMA

[5] = biological target: RAC-beta serine/threonine-protein kinase (Homo sapiens) (UniProt P31751); assay: Inhibition of human AKT2 assessed as enzyme activity at 1 uM using KGSGSGRPRTSSFAEG as substrate preincubated for 20 mins followed by [gamma-33P]-ATP addition and measured after 120 mins by radiometric Hot-SpotSM Kinase assay relative to control
RAC-beta serine/threonine-protein kinase (Homo sapiens), sequence (P31751 whole entry): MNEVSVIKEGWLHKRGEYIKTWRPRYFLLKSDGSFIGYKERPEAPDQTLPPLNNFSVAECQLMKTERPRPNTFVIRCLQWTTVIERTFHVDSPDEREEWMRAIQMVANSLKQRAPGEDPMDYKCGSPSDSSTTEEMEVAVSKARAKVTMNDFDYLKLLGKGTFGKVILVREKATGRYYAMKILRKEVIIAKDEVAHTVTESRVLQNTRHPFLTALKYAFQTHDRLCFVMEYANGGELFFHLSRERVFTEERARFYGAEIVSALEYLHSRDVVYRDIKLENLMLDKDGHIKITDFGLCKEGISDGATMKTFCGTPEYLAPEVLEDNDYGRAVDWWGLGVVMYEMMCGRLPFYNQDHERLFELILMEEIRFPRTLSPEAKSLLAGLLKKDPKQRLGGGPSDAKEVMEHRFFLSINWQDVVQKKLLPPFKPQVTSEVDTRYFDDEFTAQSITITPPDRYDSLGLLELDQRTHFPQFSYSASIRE

| Compound | Activity [1] [%] | Activity [2] [%] | Activity [3] [%] | Activity [4] [%] | Activity [5] [%] |
| --- | --- | --- | --- | --- | --- |
| C[C@H](Nc1ncnc2nc[nH]c12)c1cc2cccc(Cl)c2c(=O)n1-c1ccccc1 | 111 | 91.3 | 92.5 | 91.5 | 92 |
| CC[C@H](Nc1ncnc2[nH]cnc12)c1nc2cccc(F)c2c(=O)n1-c1ccccc1 | 96.9 | 93.7 | 89.1 | 88.5 | 91.6 |
| CC(C)Oc1ccc(-c2nn([C@@H](C)c3oc4ccc(F)cc4c(=O)c3-c3cccc(F)c3)c3ncnc(N)c23)cc1F [UMBRALISIB] | 100 | 93.2 | 87.9 | 86 | 90.8 |
